Measurements as given in patent US10995129B2 (Case Western Reserve University, priority 2011, dated 2021).

Experiments:
[1] = test system: Normal male Sprague-Dawley rats; assay: Hyperinsulinemic-euglycemic clamp; format: in vivo, rat
Method: A primed infusion of glucose was administered followed by a continuous dosage. […] Glucose appearance and disposal was determined by calculating the difference between glucose infused and glucose present in the plasma as determined by glucometer. Plasma levels of plasma nonesterified fatty acids (NEFA) are determined using a colorimeteric assay such as the assay kit available from Fujifilm Wako Diagnostics (Mountain View, Calif.). Phosphorylation relative to basal level was measured using Western blot analysis of samples harvested from liver, gastrocnemius and epididymal white adipose tissue (eWAT), and immunoblotted using anti-phosphotyrosine antibody (Cell Signaling Technologies, Inc., Danvers, Mass., Phospho-IGF-I Receptor β ([MUT]) Rabbit monoclonal antibody #3918). Similarly Akt phosphorylation was similarly tested using Cell Signaling Technology, Inc. (Danvers, Mass.) antibody No. 9271 as primary antibody and horse radish peroxidase (HRP)-linked Anti-rabbit IgG antibody No. 7074 (Cell Signaling Technology, Inc., Danvers, Mass.).

[2] = target: A isoform of the insulin receptor (IR-A) (Homo sapiens, UniProt P06213); assay: Affinity of the GluA8, TrpA13, ChaB24 analogue for receptor isoform A; format: binding
[3] = target: B isoform of the insulin receptor (IR-B) (Homo sapiens, UniProt P06213); assay: Affinity of the GluA8, TrpA13, ChaB24 analogue for receptor isoform B; format: binding

Substance: CHA: insulin analogue with Glu A8, Trp A13 and cyclohexanylalanine B24; SEQ ID NOS: 50 and 51
- increase of insulin stimulated whole body glucose disposal (Rd) ([1]; FIG. 16B): to a similar degree
- insulin stimulated whole body glucose disposal (Rd) ([1]; FIG. 16B legend): 21.1 ± 1.4 mg/kg/min
- insulin receptor tyrosine phosphorylation (IRKpY) in liver, vs KP ([1]; Western blot, FIG. 16D): decrease
- IRKpY activation in gastrocnemius muscle, vs KP ([1]; Western blot, FIG. 16E): to a similar degree
- IRKpY activation in epididymal white adipose tissue (eWAT), vs KP ([1]; Western blot, FIG. 16F): to a similar degree
- GINF (glucose infusion) ([1]; during clamp): 21.1 ± 1.4 mg/kg/min
- clamped plasma glucose concentration ([1]; during clamp, KP 24, CHA 40 pmol/kg-min): 111.1 ± 5.1 mg/dL
- suppression of endogenous glucose production (EGP) ([1]; hyperinsulinemic conditions, p=0.001): 28.2±16.7%
- 2-deoxyglucose uptake in eWAT ([1]; rat, in vivo): 0.72±0.1 mg glucose·kg tissue^−1·min^−1
- 2-deoxyglucose uptake in gastrocnemius ([1]; rat, in vivo): 18.6±2.5 mg glucose·kg tissue^−1·min^−1
- lower affinity for the A isoform of the insulin receptor [2]: five
- lower affinity for the B isoform of the insulin receptor [3]: 13 fold
